Assay results from ChEMBL document CHEMBL4002640, “Discovery of MK-1832, a Kv1.5 inhibitor with improved selectivity and pharmacokinetics” (Bioorg Med Chem Lett, 2017).
The source made the active and inactive calls.

How the values were obtained:
[1] = molecular target: T1, Potassium voltage-gated channel subfamily A member 5 (Homo sapiens, UniProt P22460); experiment: Inhibition of Kv1.5 (unknown origin)
[2] = molecular target: T1, Potassium voltage-gated channel subfamily A member 5; experiment: Inhibition of Kv1.5 mediated ultra-rapid delayed rectifier current Ikur in human atrial myocytes by voltage-patch clamp electrophysiology method; assay type: cell-based
[3] = molecular target: T2, KCNQ1/KCNE1 (IKs) (Homo sapiens, UniProt P15382+P51787); experiment: Inhibition of human KCNQ1/KCNE1 expressed in HEK293 cells assessed as reduction in slowly activating delayed rectifier cardiac potassium current at 30 uM by patch clamp electrophysiology method; assay type: cell-based; details: HEK293 cells expressing human KCNQ1/KCNE1
T2 sequence (P51787 whole entry): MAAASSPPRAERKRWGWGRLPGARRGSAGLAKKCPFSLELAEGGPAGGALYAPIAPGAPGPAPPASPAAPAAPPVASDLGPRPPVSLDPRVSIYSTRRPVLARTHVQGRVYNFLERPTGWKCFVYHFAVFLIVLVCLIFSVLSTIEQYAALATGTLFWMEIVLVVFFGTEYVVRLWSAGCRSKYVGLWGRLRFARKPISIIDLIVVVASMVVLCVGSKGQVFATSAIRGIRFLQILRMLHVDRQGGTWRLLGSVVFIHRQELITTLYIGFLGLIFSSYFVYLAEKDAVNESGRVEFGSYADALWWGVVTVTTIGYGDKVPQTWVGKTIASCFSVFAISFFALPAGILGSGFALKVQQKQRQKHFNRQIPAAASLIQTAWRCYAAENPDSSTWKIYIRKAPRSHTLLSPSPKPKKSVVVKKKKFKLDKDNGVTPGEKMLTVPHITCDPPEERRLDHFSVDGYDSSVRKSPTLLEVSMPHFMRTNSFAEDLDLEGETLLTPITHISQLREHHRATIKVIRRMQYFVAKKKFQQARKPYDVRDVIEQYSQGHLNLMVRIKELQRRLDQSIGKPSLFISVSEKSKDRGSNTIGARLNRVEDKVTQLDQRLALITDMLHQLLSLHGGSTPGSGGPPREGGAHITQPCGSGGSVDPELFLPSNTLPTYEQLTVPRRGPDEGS

[4] = molecular target: T2, KCNQ1/KCNE1 (IKs); experiment: Inhibition of human KCNQ1/KCNE1 expressed in HEK293 cells assessed as reduction in slowly activating delayed rectifier cardiac potassium current at 10 uM by patch clamp electrophysiology method; assay type: cell-based; details: HEK293 cells expressing human KCNQ1/KCNE1
[5] = molecular target: T3, Voltage-gated inwardly rectifying potassium channel KCNH2 (Homo sapiens, UniProt Q12809); experiment: Inhibition of human ERG expressed in CHOK1 cells assessed as reduction in rapidly activating delayed rectifier cardiac potassium current by whole-cell voltage-patch clamp assay; assay type: cell-based
T3 sequence (Q12809 whole entry): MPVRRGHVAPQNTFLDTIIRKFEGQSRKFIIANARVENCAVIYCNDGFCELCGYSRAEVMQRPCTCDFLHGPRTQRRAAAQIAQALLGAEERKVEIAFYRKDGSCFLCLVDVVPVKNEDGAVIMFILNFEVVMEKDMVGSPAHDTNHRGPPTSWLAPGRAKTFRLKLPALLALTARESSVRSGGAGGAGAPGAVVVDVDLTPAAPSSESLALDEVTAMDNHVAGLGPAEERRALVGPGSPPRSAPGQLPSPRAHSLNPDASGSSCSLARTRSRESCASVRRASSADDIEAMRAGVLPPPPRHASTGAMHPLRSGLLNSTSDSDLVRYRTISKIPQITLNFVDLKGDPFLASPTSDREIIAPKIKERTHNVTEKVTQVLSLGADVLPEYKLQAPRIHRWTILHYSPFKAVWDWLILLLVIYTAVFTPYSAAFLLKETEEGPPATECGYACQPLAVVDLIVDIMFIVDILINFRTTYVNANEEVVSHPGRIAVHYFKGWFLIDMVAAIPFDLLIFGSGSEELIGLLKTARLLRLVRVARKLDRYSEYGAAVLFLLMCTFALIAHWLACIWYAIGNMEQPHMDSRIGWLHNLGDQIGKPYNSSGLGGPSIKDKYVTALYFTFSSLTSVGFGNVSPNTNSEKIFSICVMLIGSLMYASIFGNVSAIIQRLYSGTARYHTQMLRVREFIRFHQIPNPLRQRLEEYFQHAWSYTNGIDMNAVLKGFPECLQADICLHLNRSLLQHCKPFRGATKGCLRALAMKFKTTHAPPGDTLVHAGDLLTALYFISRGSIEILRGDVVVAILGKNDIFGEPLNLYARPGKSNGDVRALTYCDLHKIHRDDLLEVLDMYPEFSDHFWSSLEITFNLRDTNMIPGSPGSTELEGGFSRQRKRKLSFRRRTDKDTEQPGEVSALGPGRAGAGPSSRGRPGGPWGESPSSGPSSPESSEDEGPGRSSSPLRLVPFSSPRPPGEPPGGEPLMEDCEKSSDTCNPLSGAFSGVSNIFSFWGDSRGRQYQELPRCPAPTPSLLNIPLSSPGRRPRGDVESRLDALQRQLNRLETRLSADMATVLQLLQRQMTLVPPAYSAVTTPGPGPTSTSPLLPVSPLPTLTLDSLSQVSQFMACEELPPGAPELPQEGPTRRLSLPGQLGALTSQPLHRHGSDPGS

[6] = molecular target: T3, Voltage-gated inwardly rectifying potassium channel KCNH2; experiment: Displacement of [3H]-MK499 from human ERG IKr channel expressed in HEK293 cell membranes
[7] = molecular target: T4, A-type voltage-gated potassium channel KCND3 (Homo sapiens, UniProt Q9UK17); experiment: Inhibition of Kv4.3 (unknown origin) assessed as reduction in transient outward potassium current by high throughput clamp method
T4 sequence (Q9UK17 whole entry): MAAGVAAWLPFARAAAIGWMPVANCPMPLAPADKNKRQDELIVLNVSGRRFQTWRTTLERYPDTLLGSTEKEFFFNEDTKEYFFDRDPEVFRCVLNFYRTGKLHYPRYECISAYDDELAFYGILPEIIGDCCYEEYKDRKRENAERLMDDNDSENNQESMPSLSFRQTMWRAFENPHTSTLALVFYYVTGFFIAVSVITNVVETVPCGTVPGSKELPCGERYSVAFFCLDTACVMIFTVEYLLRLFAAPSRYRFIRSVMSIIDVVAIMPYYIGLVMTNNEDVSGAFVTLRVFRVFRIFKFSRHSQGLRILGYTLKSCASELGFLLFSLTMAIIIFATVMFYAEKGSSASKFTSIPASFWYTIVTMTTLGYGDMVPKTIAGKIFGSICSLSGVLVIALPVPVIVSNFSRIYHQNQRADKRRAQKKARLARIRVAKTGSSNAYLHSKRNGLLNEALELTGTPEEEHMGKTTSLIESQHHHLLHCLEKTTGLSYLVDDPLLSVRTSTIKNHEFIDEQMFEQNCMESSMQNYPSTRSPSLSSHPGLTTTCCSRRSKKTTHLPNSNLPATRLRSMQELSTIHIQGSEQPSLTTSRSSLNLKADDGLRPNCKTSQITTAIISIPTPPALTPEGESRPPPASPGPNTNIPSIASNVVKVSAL

[8] = molecular target: Sodium channel protein type 5 subunit alpha (Homo sapiens, UniProt Q14524); experiment: Inhibition of SCN5a (unknown origin) assessed as reduction in sodium current at 10 uM by voltage/ion probe reader method
Chain of Sodium channel protein type 5 subunit alpha (Q14524 whole entry): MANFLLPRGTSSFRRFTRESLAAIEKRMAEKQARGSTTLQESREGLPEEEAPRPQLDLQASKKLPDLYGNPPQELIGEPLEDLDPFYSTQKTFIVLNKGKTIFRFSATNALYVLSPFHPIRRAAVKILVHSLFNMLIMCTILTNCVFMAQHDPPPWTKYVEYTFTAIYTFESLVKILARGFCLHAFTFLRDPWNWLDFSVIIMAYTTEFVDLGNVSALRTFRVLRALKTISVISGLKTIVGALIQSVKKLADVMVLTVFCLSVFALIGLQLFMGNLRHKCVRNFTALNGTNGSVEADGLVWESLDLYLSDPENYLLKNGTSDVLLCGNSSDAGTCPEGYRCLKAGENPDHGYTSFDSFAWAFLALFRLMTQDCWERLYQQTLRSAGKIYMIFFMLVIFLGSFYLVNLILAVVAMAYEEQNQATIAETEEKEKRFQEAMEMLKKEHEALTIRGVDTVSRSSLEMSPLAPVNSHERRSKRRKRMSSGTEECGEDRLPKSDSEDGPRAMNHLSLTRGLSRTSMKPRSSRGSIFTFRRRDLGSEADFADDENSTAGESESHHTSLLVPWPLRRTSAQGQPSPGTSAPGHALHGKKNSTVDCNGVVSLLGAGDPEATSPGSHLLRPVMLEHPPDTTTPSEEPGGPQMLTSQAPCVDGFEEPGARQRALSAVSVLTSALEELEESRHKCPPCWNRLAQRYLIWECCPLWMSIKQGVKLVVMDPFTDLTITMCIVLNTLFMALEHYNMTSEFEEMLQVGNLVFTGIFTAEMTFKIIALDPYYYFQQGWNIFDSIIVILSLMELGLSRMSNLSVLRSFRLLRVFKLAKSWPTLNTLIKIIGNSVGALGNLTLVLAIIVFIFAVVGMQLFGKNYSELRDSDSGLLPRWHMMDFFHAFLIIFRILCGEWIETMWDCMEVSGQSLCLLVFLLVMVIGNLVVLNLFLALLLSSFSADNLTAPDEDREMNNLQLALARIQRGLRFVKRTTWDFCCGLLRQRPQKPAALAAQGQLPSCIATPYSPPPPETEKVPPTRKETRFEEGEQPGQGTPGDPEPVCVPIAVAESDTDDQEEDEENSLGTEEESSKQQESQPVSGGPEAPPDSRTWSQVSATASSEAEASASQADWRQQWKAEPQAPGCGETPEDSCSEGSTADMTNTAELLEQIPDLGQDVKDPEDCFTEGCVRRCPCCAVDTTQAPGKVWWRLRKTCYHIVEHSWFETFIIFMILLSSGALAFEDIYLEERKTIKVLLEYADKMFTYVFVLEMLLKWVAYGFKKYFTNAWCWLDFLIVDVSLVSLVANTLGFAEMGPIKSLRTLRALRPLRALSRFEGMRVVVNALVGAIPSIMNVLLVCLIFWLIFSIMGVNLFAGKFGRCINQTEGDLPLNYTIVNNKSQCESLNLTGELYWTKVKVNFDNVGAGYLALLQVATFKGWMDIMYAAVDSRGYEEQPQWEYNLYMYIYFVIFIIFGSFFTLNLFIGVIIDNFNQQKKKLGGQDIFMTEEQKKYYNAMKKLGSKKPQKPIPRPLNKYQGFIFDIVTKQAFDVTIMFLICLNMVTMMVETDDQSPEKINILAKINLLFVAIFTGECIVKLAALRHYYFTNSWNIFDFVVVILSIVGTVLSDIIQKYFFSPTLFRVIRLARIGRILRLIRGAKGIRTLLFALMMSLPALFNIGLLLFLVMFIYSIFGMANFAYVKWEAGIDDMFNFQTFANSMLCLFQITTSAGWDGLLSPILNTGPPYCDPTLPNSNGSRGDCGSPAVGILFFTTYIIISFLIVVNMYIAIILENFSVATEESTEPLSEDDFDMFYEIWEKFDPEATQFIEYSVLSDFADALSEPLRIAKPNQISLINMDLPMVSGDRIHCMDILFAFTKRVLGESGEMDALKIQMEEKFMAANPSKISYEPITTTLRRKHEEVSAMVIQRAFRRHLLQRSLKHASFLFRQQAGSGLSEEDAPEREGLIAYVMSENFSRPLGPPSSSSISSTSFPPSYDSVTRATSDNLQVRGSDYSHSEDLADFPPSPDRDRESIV

[9] = organism: Homo sapiens; experiment: Substrate activity at human P-gp assessed as efflux ratio
[10] = Metabolic stability in human hepatocytes up to 3 hrs by mass spectrometry; assay type: ADME, cell-based, Hepatocyte
[11] = system: Canis familiaris; experiment: Anti-atrial fibrillation activity in anesthetized Mongrel dog assessed as increase in atrial refractory period at 400 ms of basic cycle length at 0.3 to 100 ug/kg/min, iv administered as 60 mins infusion measured up to 60 mins by electrophysiology method; assay type: functional, organism-based; details: Canis lupus familiaris
[12] = system: Canis familiaris; experiment: Toxicity in anesthetized Mongrel dog assessed as effect on ventricular refractory period at 0.3 to 100 ug/kg/min, iv administered as 60 mins infusion measured up to 60 mins by electrophysiology method; assay type: organism-based, Canis lupus familiaris; details: in vivo, 1 h
[13] = system: Canis familiaris; experiment: Toxicity in anesthetized Mongrel dog assessed as effect on heart rate at 0.3 to 100 ug/kg/min, iv administered as 60 mins infusion measured up to 60 mins by electrophysiology method; assay type: organism-based, Canis lupus familiaris; details: in vivo, 1 h
[14] = system: Canis familiaris; experiment: Toxicity in anesthetized Mongrel dog assessed as effect on mean arterial pressure at 0.3 to 100 ug/kg/min, iv administered as 60 mins infusion measured up to 60 mins by electrophysiology method; assay type: organism-based, Canis lupus familiaris; details: in vivo, 1 h
[15] = system: Canis familiaris; experiment: Toxicity in anesthetized Mongrel dog assessed as effect on ECG at 0.3 to 100 ug/kg/min, iv administered as 60 mins infusion measured up to 60 mins by electrophysiology method; assay type: organism-based, Canis lupus familiaris; details: in vivo, 1 h
[16] = system: Canis familiaris; experiment: Toxicity in anesthetized Mongrel dog assessed as effect on PR interval at 0.3 to 100 ug/kg/min, iv administered as 60 mins infusion measured up to 60 mins by electrophysiology method; assay type: organism-based, Canis lupus familiaris; details: in vivo, 1 h
[17] = system: Canis familiaris; experiment: Toxicity in anesthetized Mongrel dog assessed as effect on QRS interval at 0.3 to 100 ug/kg/min, iv administered as 60 mins infusion measured up to 60 mins by electrophysiology method; assay type: organism-based, Canis lupus familiaris; details: in vivo, 1 h
[18] = system: Canis familiaris; experiment: Toxicity in anesthetized Mongrel dog assessed as effect on QTc interval at 0.3 to 100 ug/kg/min, iv administered as 60 mins infusion measured up to 60 mins by electrophysiology method; assay type: organism-based, Canis lupus familiaris; details: in vivo, 1 h
[19] = Terminal half-life in dog; assay type: ADME, Canis lupus familiaris; details: in vivo, read-out: beta t1/2 (converted)
[20] = Terminal half-life in rat; assay type: ADME; details: in vivo, read-out: beta t1/2 (converted)
[21] = Terminal half-life in rhesus monkey; assay type: ADME, Macaca mulatta; details: in vivo, read-out: beta t1/2 (converted)
[22] = Clearance in dog; assay type: ADME, Canis lupus familiaris; details: in vivo
[23] = Clearance in rat; assay type: ADME; details: in vivo
[24] = Clearance in rhesus monkey; assay type: ADME, Macaca mulatta; details: in vivo
[25] = Volume of distribution at steady state in dog; assay type: ADME, Canis lupus familiaris; details: in vivo, read-out: Vdss
[26] = Volume of distribution at steady state in rat; assay type: ADME; details: in vivo, read-out: Vdss
[27] = Volume of distribution at steady state in rhesus monkey; assay type: ADME, Macaca mulatta; details: in vivo, read-out: Vdss
[28] = Protein binding in dog plasma; assay type: ADME, cell-free, Canis lupus familiaris; details: read-out: PPB (converted)
[29] = Protein binding in rat plasma; assay type: ADME, cell-free; details: read-out: PPB (converted)
[30] = Protein binding in rhesus monkey plasma; assay type: ADME, cell-free, Macaca mulatta; details: read-out: PPB (converted)
[31] = Oral bioavailability in dog; assay type: ADME, organism-based, Canis lupus familiaris; details: in vivo
[32] = Oral bioavailability in rat; assay type: ADME, organism-based; details: in vivo
[33] = Oral bioavailability in rhesus monkey; assay type: ADME, organism-based, Macaca mulatta; details: in vivo
[34] = system: Canis familiaris; experiment: Anti-atrial fibrillation activity in iv dosed anesthetized Mongrel dog assessed as increase in atrial refractory period at 400 ms of basic cycle length administered as 60 mins infusion measured up to 60 mins by electrophysiology method; assay type: functional, Canis lupus familiaris
[35] = system: Canis familiaris; experiment: Effect on ventricular refractory period in iv dosed anesthetized Mongrel dog assessed as threshold change in ventricular refractory period at 400 ms of basic cycle length administered as 60 mins infusion measured up to 60 mins by electrophysiology method; assay type: ADME, organism-based, Canis lupus familiaris; details: in vivo, 1 h
[36] = Selectivity index, ratio of IC50 for human KCNQ1/KCNE1 IKs channel expressed in HEK293 cells to IC50 for Kv1.5 IKur channel in human atrial myocytes
[37] = system: Canis familiaris; experiment: Selectivity index, ratio of compound effect for anti-atrial fibrillation activity in iv dosed anesthetized Mongrel dog assessed as increase in atrial refractory period to compound effect on ventricular refractory period in iv dosed anesthetized Mongrel dog; parameters: species or system Canis lupus familiaris

T1 sequence (P22460 whole entry): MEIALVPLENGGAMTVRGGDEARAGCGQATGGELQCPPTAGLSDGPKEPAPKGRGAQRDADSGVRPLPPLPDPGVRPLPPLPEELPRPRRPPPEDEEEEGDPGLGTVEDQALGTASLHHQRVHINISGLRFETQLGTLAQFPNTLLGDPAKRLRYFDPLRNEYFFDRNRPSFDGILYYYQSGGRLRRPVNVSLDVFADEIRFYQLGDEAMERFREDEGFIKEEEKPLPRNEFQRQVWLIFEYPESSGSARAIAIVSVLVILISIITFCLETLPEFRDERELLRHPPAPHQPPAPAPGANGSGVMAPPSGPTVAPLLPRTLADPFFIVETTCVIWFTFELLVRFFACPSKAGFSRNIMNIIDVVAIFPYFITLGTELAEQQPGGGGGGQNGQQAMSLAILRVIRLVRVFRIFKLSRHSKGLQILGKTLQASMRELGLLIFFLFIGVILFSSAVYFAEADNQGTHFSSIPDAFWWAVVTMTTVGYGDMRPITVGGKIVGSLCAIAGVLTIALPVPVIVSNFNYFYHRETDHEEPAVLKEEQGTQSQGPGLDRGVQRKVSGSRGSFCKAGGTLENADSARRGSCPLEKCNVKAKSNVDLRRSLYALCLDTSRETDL

IC50 [1]: 0.029 to 2.92 µM
IC50 [2]: 0.011 µM
inhibition at 30 µM [3]: 7%
inhibition at 10 µM [4]: 5.7%
IC50 [7]: 8.3 µM
Ratio [9]: 30
Stability [10]: Unstable
half-life [19]: 2.6 h
half-life [20]: 1.6 h
half-life [21]: 1 h
clearance [22]: 3.7 mL/min/kg
clearance [23]: 16.7 mL/min/kg
clearance [24]: 14.3 mL/min/kg
Vd [25]: 0.81 L/kg
Vd [26]: 1.59 L/kg
Vd [27]: 0.99 L/kg
fraction unbound [28]: 0.16
fraction unbound [29]: 0.21
fraction unbound [30]: 0.08
bioavailability [31]: 93%
bioavailability [32]: 34%
bioavailability [33]: 21%
Activity [35]: > 25 µM
Structure (SMILES): O[C@@H](c1cccnc1-c1cc(Cl)cc(Cl)c1)C(c1cccnc1)c1cccnc1
IC50 [5]: 128 µM
IC50 [6]: > 30 µM
inhibition (INH) [8]: Not Active
Activity [11]: Active
Activity [12]: Non-Toxic
Activity [13]: Non-Toxic
Activity [14]: Non-Toxic
Activity [15]: Non-Toxic
Activity [16]: Non-Toxic
Activity [17]: Non-Toxic
Activity [18]: Non-Toxic
EC10 [34]: 0.014 µM
Ratio IC50 [36]: >3000
Selectivity Index [37]: >1800
